Consider seven compounds from ChEMBL document CHEMBL1799912, “Benzodihydrofurans from Cyperus teneriffae” (J Nat Prod, 2011).

SMILES strings stand for the structures. Calls of active or inactive are those of the source. No cut-off for these calls is given here.

The assay can be described thus: Antiestrogenic activity in human MCF7/BUS cells assessed as inhibition of 17beta-estradiol-induced cell proliferation at 10 uM after 6 days by E-Screen test. The assay is classed as functional, cell-based.
Turning to `C=C(C)[C@@H]1Cc2c(c(OC)c3occ(C)c3c2OC)O1`, the outcome was inactive. The entry for `C=C(C)[C@@H]1Cc2c(c(OC)c(O)c(C(C)=O)c2OC)O1` is “inactive”.

For `COc1cc(OC)c2c(c1)O/C(=C\c1ccc(OC)c(O)c1)C2=O`, the outcome was inactive. For the compound `COc1cc(O)c(CC=C(C)C)c(O)c1C(C)=O`, the result was inactive. The entry for `COc1ccc(-c2oc3cc(O)cc(O)c3c(=O)c2O)cc1O` is “inactive”. For the compound `COc1cc(OC)c2c(c1)O/C(=C\c1ccc(OC)c(OC)c1)C2=O`, the result was inactive.

For `O=C1CC(c2ccc(O)c(O)c2)Oc2cc(O)cc(O)c21` (configuration not stated), the result was inactive.
